Patent US9073935B2, “Substituted benzylspiroindolin-2-one analogs as positive allosteric modulators of the muscarinic acetylcholine receptor M1” (VANDERBILT UNIVERSITY, priority 2011, dated 2015)
Read-outs that look alike come from different tables or passages of the source.

Molecular target: T1, mAChR M1 (UniProt P11229)
T1 sequence (P11229 1-460): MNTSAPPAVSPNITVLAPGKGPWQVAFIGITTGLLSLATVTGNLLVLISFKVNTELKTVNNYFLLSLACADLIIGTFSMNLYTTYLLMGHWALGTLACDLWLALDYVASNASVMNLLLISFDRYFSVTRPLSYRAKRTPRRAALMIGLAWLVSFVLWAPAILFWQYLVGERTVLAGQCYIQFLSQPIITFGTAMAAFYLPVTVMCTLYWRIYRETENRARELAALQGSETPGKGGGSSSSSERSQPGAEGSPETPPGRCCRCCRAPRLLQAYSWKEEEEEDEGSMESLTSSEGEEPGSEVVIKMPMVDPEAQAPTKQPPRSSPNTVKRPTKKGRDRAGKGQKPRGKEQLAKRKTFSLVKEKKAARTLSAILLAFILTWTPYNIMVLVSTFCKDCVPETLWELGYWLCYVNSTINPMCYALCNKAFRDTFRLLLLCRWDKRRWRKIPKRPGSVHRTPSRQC
Experiment: mAChR M1 cell-based functional assay (calcium mobilization, potentiation of EC20 acetylcholine response)
Details: for EC50: CHO-K1 cells expressing mAChR M1, increase in EC20 acetylcholine response, >10 μM estimated where no plateau in the curve
Description: Chinese hamster ovary (CHO-K1) cells stably expressing rat (r)M1 were purchased from the American Type Culture Collection and cultured according to their indicated protocol. […] To make stable rM2, hM2, rM3, hM4, and rM4 cell lines for use in calcium mobilization assays, these cells also were stably transfected with a chimeric G-protein (Gqi5) (provided by B. R. Conklin, University of California, San Francisco) using Lipofectamine 2000. rM1, hM1, rM3, hM3, rM5, and hM5 cells were grown in Ham's F-12 medium containing 10% heat-inactivated fetal bovine serum (FBS), 20 mM HEPES, and 50 μg/mL G418 sulfate. rM2-Gqi5, hM2-Gqi5, and hM4-Gqi5 cells were grown in the same medium also containing 500 μg/mL Hygromycin B. Stable rM4-Gqi5 cells were grown in DMEM containing 10% heat-inactivated FBS, 20 mM HEPES, 400 μg/mL G418 sulfate, and 500 μg/mL Hygromycin B.
For high throughput measurement of agonist-evoked increases in intracellular calcium, CHO-K1 cells stably expressing muscarinic receptors were plated in growth medium lacking G418 and hygromycin at 15,000 cells/20 μL/well in Greiner 384-well black-walled, tissue culture (TC)-treated, clear-bottom plates (VWR). Cells were incubated overnight at 37° C. and 5% CO2. […] Compound master plates were formatted in an 11 point CRC format (1:3 dilutions) in 100% DMSO with a starting concentration of 10 mM using the BRAVO liquid handler (Agilent). Test compound CRCs were then transferred to daughter plates ([…]) using the Echo acoustic plate reformatter (Labcyte, Sunnyvale, Calif.) and then diluted into assay buffer (40 μL) to a 2× stock using a Thermo Fisher Combi (Thermo Fisher Scientific, Waltham, Mass.).
Calcium flux was measured using the Functional Drug Screening System (FDSS) 6000 (Hamamatsu Corporation, Tokyo, Japan) as an increase in the fluorescent static ratio. Compounds were applied to cells (20 μL, 2×) using the automated system of the FDSS 6000 at 4 s into the 300 s protocol and the data were collected at 1 Hz. […] Agonist activity was analyzed as a concentration-dependent increase in calcium mobilization upon compound addition. Positive allosteric modulator activity was analyzed as a concentration-dependent increase in the EC20 acetylcholine response. Antagonist activity was analyzed as a concentration-dependent decrease in the EC80 acetylcholine response. Concentration-response curves were generated using a four-parameter logistical equation in XLfit curve fitting software (IDBS, Bridgewater, N.J.) for Excel (Microsoft, Redmond, Wash.) or Prism (GraphPad Software, Inc., San Diego, Calif.).
The calcium mobilization assay was also used to determine “efficacy”. In the context of the assays carried out for the data in Table II, “efficacy” (% ACh at 30 μM) is defined as the maximal response in the calcium flux as determined by the sigmoidal curve fit of the concentration response curve, or in the absence of an acceptable curve fit, the response recorded at 30 μM test compound, stated as a percentage of the response elicited by a concentration of Ach that induces approximately 80% of a maximal (i.e. saturating) ACh response.
Substituted benzylspiroindolin-2-one analogs were synthesized as described above. Activity (EC50 and Emax) was determined in the mAChR M1 cell-based functional assay as described above and the data are shown in Table III. The compound number corresponds to the compound numbers used in Tables I and II.

## Cn1cc(-c2ccc(CN3C(=O)C4(CCN(C(=O)c5ccccc5)C4)c4ccccc43)c(F)c2)cn1 (single isomer, unassigned) [Compound B47]
% ACh maximum at 30 μM
  Emax: 38%
  EC50: 5.8 µM

## Cn1cc(-c2ccc(CN3C(=O)C4(CCN(C5CNC5)C4)c4ccccc43)c(F)c2)cn1 (stereo not shown) [Compound B50]
% ACh maximum at 30 μM
  Emax: 58%
  EC50: 6 µM

## Cn1cc(-c2ccc(CN3C(=O)C4(CCN(C5CCCNC5)CC4)c4ccccc43)c(F)c2)cn1 (stereo not shown) [Compound B43]
% ACh maximum at 30 μM
  Emax: 48%
  EC50: 5 µM

## Cn1cc(-c2ccc(CN3C(=O)C4(CCN(C5CCOC5)C4)c4ccccc43)c(F)c2)cn1 (stereo not shown) [Compound B25]
% ACh maximum at 30 μM
  Emax: 54%
  EC50: 3.3 µM

## Cn1cc(-c2ccc(CN3C(=O)C4(CCN(CCF)C4)c4ccccc43)c(F)c2)cn1 (stereo not shown) [Compound B23]
  Emax: 63%
  EC50: 3.2 µM

## Cn1cc(-c2ccc(CN3C(=O)C4(CCN(C5CCCSC5)CC4)c4ccccc43)c(F)c2)cn1 (stereo not shown) [Compound B29]
% ACh maximum at 30 μM
  Emax: 42%
  EC50: 3.7 µM

## Cn1cc(-c2ccc(CN3C(=O)C4(CCN(S(C)(=O)=O)C4)c4ccccc43)c(F)c2)cn1 (stereo not shown) [Compound B65, 1-(2-fluoro-4-(1-methyl-1H-pyrazol-4-yl)benzyl)-1′-(methylsulfonyl)spiro[indoline-3,3′-pyrrolidin]-2-one]
% ACh maximum at 30 μM
  Emax: 35%
  EC50: > 10 µM

## Cn1cc(-c2ccc(CN3C(=O)C4(CCN(C5CCC5)C4)c4ccccc43)c(F)c2)cn1 (stereo not shown) [Compound B14]
% ACh maximum at 30 μM
  Emax: 58%
  EC50: 2.6 µM

## Cn1cc(-c2ccc(CN3C(=O)C4(CCN(C5CCCCC5)C4)c4ccccc43)c(F)c2)cn1 (single isomer, unassigned) [Compound B2]
% ACh maximum at 30 μM
  Emax: 73%
  EC50: 1.5 µM

## CC(C)N1CCC(N2CCC3(C2)C(=O)N(Cc2ccc(-c4cnn(C)c4)cc2F)c2ccccc23)CC1 (stereo not shown) [Compound B44]
% ACh maximum at 30 μM
  Emax: 49%
  EC50: 5 µM

## CN1CCCC12C(=O)N(Cc1ccc(-c3cnn(C)c3)cc1)c1ccccc12 (stereo not shown) [Compound B64, 1′-methyl-1-(4-(1-methyl-1H-pyrazol-4-yl)benzyl)spiro[indoline-3,2′-pyrrolidin]-2-one]
% ACh maximum at 30 μM
  Emax: 48%
  EC50: > 10 µM

## Cn1cc(-c2ccc(CN3C(=O)C4(CCN(C5CCCCCC5)C4)c4ccccc43)c(F)c2)cn1 (stereo not shown) [Compound B21]
% ACh maximum at 30 μM
  Emax: 51%
  EC50: 3 µM

## Cn1cc(-c2ccc(CN3C(=O)C4(CCN(CC(F)F)C4)c4ccccc43)c(F)c2)cn1 (stereo not shown) [Compound B26, 1′-(2,2-difluoroethyl)-1-(2-fluoro-4-(1-methyl-1H-pyrazol-4-yl)benzyl)spiro[indoline-3,3′-pyrrolidin]-2-one]
  Emax: 53%
  EC50: 3.4 µM

## CN1CCCC12C(=O)N(Cc1c(F)cc(-c3cccc4nn(C)cc34)cc1F)c1ccccc12 (stereo not shown) [Compound B80]
% ACh maximum at 30 μM
  Emax: <30%
  EC50: > 10 µM

## Cn1cc2c(-c3cc(F)c(CN4C(=O)C5(CCN(C(=O)OC(C)(C)C)C5)c5ccccc54)c(F)c3)cccc2n1 (stereo not shown) [Compound B76]
% ACh maximum at 30 μM
  Emax: <30%
  EC50: > 10 µM

## Cn1cc(-c2ccc(CN3C(=O)C4(CCN(C5CCSC5)CC4)c4ccccc43)c(F)c2)cn1 (stereo not shown) [Compound B42]
% ACh maximum at 30 μM
  Emax: 51%
  EC50: 4.9 µM

## Cn1cc(-c2ccc(CN3C(=O)C4(CCN(C5CCCCC5)C4)c4ccccc43)c(F)c2)cn1 (single isomer, unassigned) [Compound B58]
% ACh maximum at 30 μM
  Emax: 39%
  EC50: > 10 µM

## Cn1cc(-c2ccc(CN3C(=O)C4(CCN(C5CCSCC5)C4)c4ccccc43)c(F)c2)cn1 (stereo not shown) [Compound B15]
% ACh maximum at 30 μM
  Emax: 58%
  EC50: 2.7 µM

## Cn1cc(-c2ccc(CN3C(=O)C4(CCN(C5COC5)CC4)c4ccccc43)c(F)c2)cn1 [Compound B55]
% ACh maximum at 30 μM
  Emax: 45%
  EC50: 7 µM

## Cn1cc(-c2ccc(CN3C(=O)C4(CCN(C5CCSCC5)CC4)c4ccccc43)c(F)c2)cn1 [Compound B40]
% ACh maximum at 30 μM
  Emax: 38%
  EC50: 4.7 µM

## CN1CCC(N2CCC3(CC2)C(=O)N(Cc2ccc(-c4cnn(C)c4)cc2F)c2ccccc23)CC1 [Compound B48]
% ACh maximum at 30 μM
  Emax: 51%
  EC50: 5.9 µM

## CN1CCC2(CC1)C(=O)N(Cc1c(F)cc(-c3cccc4nn(C)cc34)cc1F)c1ccccc12 [Compound B79]
% ACh maximum at 30 μM
  Emax: <30%
  EC50: > 10 µM

## Cn1cc(-c2ccc(CN3C(=O)C4(CCN(CC5CCCCC5)C4)c4ccccc43)c(F)c2)cn1 (single isomer, unassigned) [Compound B73]
% ACh maximum at 30 μM
  Emax: <20%
  EC50: > 10 µM

## Cn1cc(-c2ccc(CN3C(=O)C4(CCN(C5CCOC5)CC4)c4ccccc43)c(F)c2)cn1 (stereo not shown) [Compound B71]
% ACh maximum at 30 μM
  Emax: 36%
  EC50: > 10 µM

## Cn1cc(-c2ccc(CN3C(=O)C4(CCN(C5COC5)C4)c4ccccc43)c(F)c2)cn1 (stereo not shown) [Compound B28]
% ACh maximum at 30 μM
  Emax: 57%
  EC50: 3.7 µM

## CN1CCCC(N2CCC3(CC2)C(=O)N(Cc2ccc(-c4cnn(C)c4)cc2F)c2ccccc23)C1 (stereo not shown) [Compound B53]
% ACh maximum at 30 μM
  Emax: 57%
  EC50: 6.7 µM

## Cn1cc(-c2ccc(CN3C(=O)C4(CCN(C(=O)C5CCCCC5)C4)c4ccccc43)c(F)c2)cn1 (stereo not shown) [Compound B62]
% ACh maximum at 30 μM
  Emax: 54%
  EC50: > 10 µM

## CCn1cc(-c2ccc(CN3C(=O)C4(CCN(C5CCCC5)C4)c4ccccc43)c(F)c2)cn1 (stereo not shown) [Compound B17]
% ACh maximum at 30 μM
  Emax: 45%
  EC50: 2.8 µM

## Cn1cc(-c2ccc(CN3C(=O)C4(CCN(C5CCOCC5)CC4)c4ccccc43)c(F)c2)cn1 [Compound B69]
% ACh maximum at 30 μM
  Emax: 41%
  EC50: > 10 µM

## Cn1cc2c(-c3cc(F)c(CN4C(=O)C5(CCNC5)c5ccccc54)c(F)c3)cccc2n1 (stereo not shown) [Compound B74]
% ACh maximum at 30 μM
  Emax: 69%
  EC50: 7.2 µM

## CC(C)CN1CCC2(C1)C(=O)N(Cc1ccc(-c3cnn(C)c3)cc1F)c1ccccc12 (stereo not shown) [Compound B49]
% ACh maximum at 30 μM
  Emax: 69%
  EC50: 6 µM

## CN1CCC2(C1)C(=O)N(Cc1ccc(-c3cnn(C)c3)cc1F)c1ccccc12 (single isomer, unassigned) [Compound B31, 1-(2-fluoro-4-(1-methyl-1H-pyrazol-4-yl)benzyl)-1′-methylspiro[indoline-3,3′-pyrrolidin]-2-one]
% ACh maximum at 30 μM
  Emax: 76%
  EC50: 3.8 µM

## Cn1cc(-c2ccc(CN3C(=O)C4(CCN(C5CCC5)CC4)c4ccccc43)c(F)c2)cn1 [Compound B66]
% ACh maximum at 30 μM
  Emax: 32%
  EC50: > 10 µM

## CN1CCC2(C1)C(=O)N(Cc1ccc(-c3cnn(C)c3)cc1F)c1ccccc12 (single isomer, unassigned) [Compound B16, 1-(2-fluoro-4-(1-methyl-1H-pyrazol-4-yl)benzyl)-1′-methylspiro[indoline-3,3′-pyrrolidin]-2-one]
% ACh maximum at 30 μM
  Emax: 46%
  EC50: 2.7 µM

## CCCn1cc(-c2ccc(CN3C(=O)C4(CCN(C5CCCC5)C4)c4ccccc43)c(F)c2)cn1 (stereo not shown) [Compound B32]
% ACh maximum at 30 μM
  Emax: 41%
  EC50: 3.8 µM

## Cn1cc(-c2ccc(CN3C(=O)C4(CCN(C5CCOCC5)C4)c4ccccc43)c(F)c2)cn1 (stereo not shown) [Compound B10]
% ACh maximum at 30 μM
  Emax: 61%
  EC50: 2.4 µM

## CC1CCC(N2CCC3(C2)C(=O)N(Cc2ccc(-c4cnn(C)c4)cc2F)c2ccccc23)CC1 (stereo not shown) [Compound B52]
% ACh maximum at 30 μM
  Emax: 46%
  EC50: 6.7 µM

## Cn1cc(-c2cc(F)c(CN3C(=O)C4(CCN(C5CCCC5)C4)c4ccccc43)cc2F)cn1 (stereo not shown) [Compound B13]
% ACh maximum at 30 μM
  Emax: 62%
  EC50: 2.4 µM
